In ChEMBL document CHEMBL4190372, “Discovery of a Novel Oral Glucocorticoid Receptor Modulator (AZD9567) with Improved Side Effect Profile” (J Med Chem, 2018):

What was measured:
[1] = Terminal half life in Han-Wistar rat at 0.8 mg/kg, iv; format: ADME, organism-based; conditions: in vivo, read-out: beta t1/2 (converted)
[2] = target: T1, Glucocorticoid receptor (Homo sapiens, UniProt P04150)
T1 sequence (P04150 whole entry): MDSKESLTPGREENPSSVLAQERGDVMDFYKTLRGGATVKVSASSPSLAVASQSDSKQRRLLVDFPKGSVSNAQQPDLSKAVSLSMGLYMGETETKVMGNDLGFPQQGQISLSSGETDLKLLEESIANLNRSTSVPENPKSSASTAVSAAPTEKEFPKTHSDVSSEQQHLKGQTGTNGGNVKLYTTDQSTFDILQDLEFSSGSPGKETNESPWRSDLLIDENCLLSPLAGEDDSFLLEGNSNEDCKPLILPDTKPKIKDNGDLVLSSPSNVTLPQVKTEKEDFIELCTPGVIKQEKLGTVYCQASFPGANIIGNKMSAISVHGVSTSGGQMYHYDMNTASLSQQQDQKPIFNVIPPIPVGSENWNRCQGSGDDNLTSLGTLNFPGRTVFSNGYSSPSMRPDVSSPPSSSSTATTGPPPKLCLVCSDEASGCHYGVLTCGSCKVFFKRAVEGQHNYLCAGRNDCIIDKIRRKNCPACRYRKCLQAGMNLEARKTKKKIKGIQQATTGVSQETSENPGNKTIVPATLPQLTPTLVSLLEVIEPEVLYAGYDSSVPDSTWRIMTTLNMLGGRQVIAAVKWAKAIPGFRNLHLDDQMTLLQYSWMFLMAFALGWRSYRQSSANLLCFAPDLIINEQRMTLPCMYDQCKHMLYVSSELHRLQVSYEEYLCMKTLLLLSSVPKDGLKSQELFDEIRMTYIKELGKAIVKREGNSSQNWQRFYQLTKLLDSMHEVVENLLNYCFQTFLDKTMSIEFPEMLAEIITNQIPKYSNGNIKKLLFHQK
Description: Transactivation activity at glucocorticoid receptor (unknown origin) expressed in human ChaGoK1 cells incubated for 24 hrs by beta-galactosidase reporter gene assay

[3] = Clearance in Han-Wistar rat at 0.8 mg/kg, iv; format: ADME, organism-based; conditions: in vivo
[4] = target: T1, Glucocorticoid receptor; remark: listed apart in the source
Description: Transrepression activity at glucocorticoid receptor (unknown origin) expressed in human ChaGoK1 cells assessed as inhibition of PMA-stimulated gene expression incubated for 24 hrs by beta-galactosidase reporter gene assay

[5] = target: T2, Mineralocorticoid receptor (Homo sapiens, UniProt P08235); experiment: Displacement of [3H]-aldosterone from human mineralocorticoid receptor LBD (729 to 984 residues) after 1 hr by scintillation proximity assay
T2 sequence (P08235 whole entry): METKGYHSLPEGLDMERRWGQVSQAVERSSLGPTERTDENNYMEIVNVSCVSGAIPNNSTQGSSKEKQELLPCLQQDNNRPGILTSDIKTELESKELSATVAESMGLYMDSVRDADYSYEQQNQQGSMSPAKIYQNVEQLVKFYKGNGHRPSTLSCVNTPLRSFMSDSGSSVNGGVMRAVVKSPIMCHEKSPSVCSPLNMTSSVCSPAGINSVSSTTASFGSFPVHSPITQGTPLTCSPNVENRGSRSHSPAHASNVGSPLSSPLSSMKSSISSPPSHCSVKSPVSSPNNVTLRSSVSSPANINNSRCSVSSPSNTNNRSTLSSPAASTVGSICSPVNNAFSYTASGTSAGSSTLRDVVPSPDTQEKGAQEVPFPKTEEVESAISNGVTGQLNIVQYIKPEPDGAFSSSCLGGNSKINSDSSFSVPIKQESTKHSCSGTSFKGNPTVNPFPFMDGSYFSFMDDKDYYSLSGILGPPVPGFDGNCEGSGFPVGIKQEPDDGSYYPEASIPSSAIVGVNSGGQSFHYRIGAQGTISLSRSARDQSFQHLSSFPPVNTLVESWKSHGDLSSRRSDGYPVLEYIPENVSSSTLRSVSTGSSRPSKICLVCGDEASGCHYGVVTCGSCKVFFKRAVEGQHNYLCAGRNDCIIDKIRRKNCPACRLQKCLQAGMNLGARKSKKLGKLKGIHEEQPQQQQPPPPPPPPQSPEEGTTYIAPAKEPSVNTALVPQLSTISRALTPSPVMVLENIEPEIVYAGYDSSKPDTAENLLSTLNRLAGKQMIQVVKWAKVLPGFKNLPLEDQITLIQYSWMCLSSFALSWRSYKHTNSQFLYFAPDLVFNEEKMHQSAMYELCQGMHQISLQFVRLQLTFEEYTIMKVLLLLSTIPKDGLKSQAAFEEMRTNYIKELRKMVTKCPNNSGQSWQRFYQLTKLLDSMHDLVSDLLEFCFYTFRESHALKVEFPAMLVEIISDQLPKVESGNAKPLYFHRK

[6] = test system: Rattus norvegicus; experiment: Antiinflammatory activity in streptococcal cell wall reactivation Lewis rat model assessed as reduction of joint swelling at 0.1 mg/kg administered once daily for 8 days by oral gavage starting 1 day prior to streptococcal cell wall challenge measured during 6 days post challenge relative to control; format: functional; parameters: scale not given: the % may be the effect or the level left
[7] = target: T1, Glucocorticoid receptor; experiment: Transactivation of GR in cryopreserved human primary hepatocytes assessed as upregulation of TAT mRNA expression level up to 1 uM after 18 hrs by RT-qPCR analysis
[8] = target: T3, Androgen receptor (Homo sapiens, UniProt P10275); experiment: biochemical
T3 sequence (P10275 whole entry): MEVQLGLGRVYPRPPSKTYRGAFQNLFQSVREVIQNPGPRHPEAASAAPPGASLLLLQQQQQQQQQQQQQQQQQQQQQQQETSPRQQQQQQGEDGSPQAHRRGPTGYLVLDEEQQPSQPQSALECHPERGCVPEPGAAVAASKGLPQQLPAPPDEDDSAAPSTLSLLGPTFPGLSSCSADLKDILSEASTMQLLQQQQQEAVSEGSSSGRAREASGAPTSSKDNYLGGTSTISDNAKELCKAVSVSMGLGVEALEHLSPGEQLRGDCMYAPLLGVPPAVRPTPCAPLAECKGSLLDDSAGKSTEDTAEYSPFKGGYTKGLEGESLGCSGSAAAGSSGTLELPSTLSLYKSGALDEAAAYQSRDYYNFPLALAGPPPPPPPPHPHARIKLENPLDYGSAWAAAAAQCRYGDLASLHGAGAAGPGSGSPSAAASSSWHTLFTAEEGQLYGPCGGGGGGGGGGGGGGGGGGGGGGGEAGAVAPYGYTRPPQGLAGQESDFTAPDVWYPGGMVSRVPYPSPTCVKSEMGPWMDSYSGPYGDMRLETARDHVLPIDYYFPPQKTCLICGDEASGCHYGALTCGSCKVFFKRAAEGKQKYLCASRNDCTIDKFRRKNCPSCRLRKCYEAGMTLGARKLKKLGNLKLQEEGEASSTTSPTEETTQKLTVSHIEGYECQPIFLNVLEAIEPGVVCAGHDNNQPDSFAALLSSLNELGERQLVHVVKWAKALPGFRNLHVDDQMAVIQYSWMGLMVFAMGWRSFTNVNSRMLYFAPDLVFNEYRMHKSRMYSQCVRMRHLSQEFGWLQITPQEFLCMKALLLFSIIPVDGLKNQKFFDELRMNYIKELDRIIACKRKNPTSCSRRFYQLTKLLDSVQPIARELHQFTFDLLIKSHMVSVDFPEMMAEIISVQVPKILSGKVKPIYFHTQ
Description: Displacement of [3H]methyltrienolone from androgen receptor in human LNCaP cells after 1440 mins by scintillation counting method

Question: What does the source list for CC(C)[C@H](NC(=O)C(C)(F)F)[C@H](Oc1ccc2c(cnn2-c2ccc(=O)n(C)c2)c1)c1ccccc1 [MIZACORAT]?
Answer: half-life [1]: 2.3 h; EC50 [2]: 11 nM; clearance [3]: 4.5 mL/min/kg; IC50 [4]: 7 nM; IC50 [5]: > 38000 nM; Activity [6]: 42%; Activity [7]: Not Active; IC50 [8]: > 100000 nM
